# How the values were obtained:
# Assay type in all cases: in vivo
# [1] = system: Carrageenan induced paw edema; assay: Carrageenan paw edema in rats: blends of Boswellia extract with edible oils (Example 7)
# Method: The animals were housed in polypropylene cages and maintained under standard animal house conditions (12:12 hour light/dark cycle at 24±2° C. and 45-65% relative humidity). The rats had free access to standard pellet diet and water. 24 rats were divided into 8 groups comprising of 3 rats in each group. The rats were deprived of food, but had free access to drinking water for 12 h prior to the experiment. The treatment was as follows: After 12 hour fasting, baseline paw volume was recorded for each rat using digital plethysmometer (Ugo Basile, […]). Carrageenan (0.1 ml of 1%) in saline (0.9% NaCl) was injected into the plantar surface of the right hind paw of the animals. The experimental groups were given the designated extract/standard orally, 30 minutes prior to the injection of the carrageenan. After injection of carrageenan, paw volume was recorded at 3 hr. to 6 hr. post carrageenan. The edema was expressed as an increase in the volume of paw from baseline value, and the percentage of inhibition for each rat was calculated. Each composition of boswellia was obtained through standard mixing of boswellia extract with vegetable oil. • Group 1: 10 mg/Kg Diclofenac. • Group 2: 82 mg/Kg Hydrophobic blend of Boswellia extract (10% AKBA) with sesame oil (2:3). • Group 3: 82 mg/Kg Hydrophobic Boswellia extract (10% AKBA) with coconut oil (2:3). • Group 4: 82 mg/Kg Hydrophobic Boswellia extract (10% AKBA) with olive oil (2:3). • Group 5: 82 mg/Kg Hydrophobic Boswellia extract (10% AKBA) with rice bran (2:3). • Group 6: 82 mg/Kg Hydrophobic Boswellia extract (10% AKBA) with Cotton seed oil (2:3). • Group 7: 82 mg/Kg Hydrophobic Boswellia extract (10% AKBA) with Boswellia fat (2:3). • Group 8: 50 mg/Kg Homogenized dispersion hydrophobic Boswellia extract with 10% AKBA with sesame oil with 10% sesame lignans. (BS-4).
# [2] = system: Carrageenan induced paw oedema; assay: Carrageenan paw oedema in rats: Boswellia extract, sesame oil and their combinations (Example 8)
# Method: The animals were housed in polypropylene cages and maintained under standard animal house conditions (12:12 hour light/dark cycle at 24±2° C. and 45-65% relative humidity). The rats had free access to standard pellet diet and water. […] were divided into 9 groups comprising of 3 rats in each group. The rats were deprived of food, but had free access to drinking water for 12 h prior to the experiment. The treatment was as follows: • Group 1: Untreated control. • Group 2: 10 mg/Kg Diclofenac. • Group 3: 20 mg/Kg Hydrophobic Boswellia extract with 2% AKBA (made as per example 2). • Group 4: 20 mg/Kg Hydrophobic Boswellia extract with 10% AKBA (made as per example 1). • Group 5: 30 mg/Kg Sesame seed oil about 0.9% sesame lignans. • Group 6: 50 mg/Kg Simple blend of Boswellia extract with 2% AKBA with Sesame seed oil with 10% sesame lignans (made as per example 6; using AKBA2). • Group 7: 50 mg/Kg Homogenized dispersion of hydrophobic Boswellia extract with 2% AKBA with sesame oil with 10% sesame lignans. (Made as per example 4). • Group 8: 50 mg/Kg Simple hydrophobic Boswellia extract with 10% AKBA with sesame oil with 10% sesame lignans. (Made as per example 6, F1). • Group 9: 50 mg/Kg Homogenized dispersion hydrophobic Boswellia extract with 10% AKBA with sesame oil with 10% sesame lignans. (Made as per example 4). After 12 hour fasting, baseline paw volume was recorded for each rat using digital plethysmometer (Ugo Basile, […]). Carrageenan (0.1 ml of 1%) in saline (0.9% NaCl) was injected into the plantar surface of the right hind paw of the animals. The experimental groups were given the designated extract/standard orally, 30 minutes prior to the injection of the carrageenan. […] The oedema was expressed as an increase in the volume of paw from baseline value, and the percentage of inhibition for each rat was calculated.
# [3] = system: Carrageenan induced paw edema; assay: Carrageenan paw edema in rats: different ratios of Boswellia and sesame oil (Example 10)
# Method: The animals were housed in polypropylene cages and maintained under standard animal house conditions (12:12 hour light/dark cycle at 24±2° C. and 45-65% relative humidity). The rats had free access to standard pellet diet and water. 27 rats were divided into 9 groups comprising of 3 rats in each group. The rats were deprived of food, but had free access to drinking water for 12 h prior to the experiment. The treatment was as follows: After 12 hour fasting, baseline paw volume was recorded for each rat using digital plethysmometer (Ugo Basile, […]). Carrageenan (0.1 ml of 1%) in saline (0.9% NaCl) was injected into the plantar surface of the right hind paw of the animals. The experimental groups were given the designated extract/standard orally, 30 minutes prior to the injection of the carrageenan. After injection of carrageenan, paw volume was recorded at 3 hr to 6 hr post carrageenan. The edema was expressed as an increase in the volume of paw from baseline value, and the percentage of inhibition for each rat was calculated. Different compositions of sesame oil with boswellia was tested to find out the optimum ratio with enhanced activity. Each composition of boswellia has undergone a regress milling and grinding resulting in SSA of greater than 1.2×10^3 m^2/kg. • Group 1: 50 mg/Kg AKBA10+Sesame oil (2:3). • Group 2: 50 mg/Kg, AKBA10+Sesame oil (5:7) • Group 3: 50 mg/Kg AKBA10+Sesame oil (9:11) • Group 4: 50 mg/Kg AKBA10+Sesame oil (1:3) • Group 5: 50 mg/Kg AKBA10+Sesame oil (1:5) • Group 6: 50 mg/Kg AKBA10+Sesame oil (1:9) • Group 7: 50 mg/Kg AKBA10+Sesame oil (1:1) • Group 8: 50 mg/Kg AKBA10+Sesame oil • Group 9: 10 mg/Kg Diclofenac
compound,measurement,setting,value
O=C(O)Cc1ccccc1Nc1c(Cl)cccc1Cl [Diclofenac],Avrage percentage inhibition,"[1]; average of 3HR and 6HR, doses as in table",68.3%
same,Percentage inhibition (%) 3HR,"[1]; paw edema 3 hr post carrageenan, oral 30 min before, Diclofenac 10, oil blends 82, BS-4 50 mg/kg",66.67%
same,Percentage inhibition (%) 6HR,"[1]; paw edema 6 hr post carrageenan, oral 30 min before, Diclofenac 10, oil blends 82, BS-4 50 mg/kg",69.94%
same,percentage inhibition 1 h,"[2]; 1 h post carrageenan, oral, dose per group 10-50 mg/Kg",64%
same,percentage inhibition 3 h,"[2]; 3 h post carrageenan, oral, dose per group 10-50 mg/Kg",84%
same,percentage inhibition 5 h,"[2]; 5 h post carrageenan, oral, dose per group 10-50 mg/Kg",93%
same,percentage inhibition 6 h,"[2]; 6 h post carrageenan, oral, dose per group 10-50 mg/Kg",97%
same,Average percentage inhibition,"[2]; average of 1, 3, 5, 6 h",85%
same,Percentage inhibition (%) 3HR,"[3]; 3 hr post carrageenan, oral, AKBA10+sesame oil 50 mg/Kg, SSA >1.2×10^3 m^2/kg, Diclofenac 10 mg/kg",66%
same,Percentage inhibition (%) 6HR,"[3]; 6 hr post carrageenan, oral, AKBA10+sesame oil 50 mg/Kg, Diclofenac 10 mg/kg",98%
same,Average percentage inhibition,[3]; average of 3HR and 6HR,82%

# Source: patent US12527833B2, “Pharmaceutical composition made from hydrophobic phytochemicals dispersed in sesame oil to enhance bioactivity” (ARJUNA NATURAL PVT. LTD., priority 2017, dated 2026)
